This note sets out measurements from patent publication US20180141913A1 (EISAI R & D MANAGEMENT CO., LTD., priority 2016, published 2018).

The assay deals with MCF7 cells with ectopic expression of ERα Y537S/N/C, D538G. In words: In vitro proliferation of wild-type and mutant ER-bearing MCF7 lines with clinical therapies (FIG. 1). Type of assay: cell-based, human. As for the experimental part:
48 h post-transfection, virus containing media was filtered and added to MCF7 cells in the presence of 8 µg/ml polybrene overnight. Two days following infection, cells were placed under selection with 10 µg/ml blasticidin for 2 weeks for stable expression.
In parallel, cells were also seeded in a separate 96-well plate (8 wells/cell line, control plate) for which a CTG (CellTiter-Glo® Luminescent Viability Assay, Promega, Cat #G7572) was measured the following day (day 0 reading). The day 0 reading was used for the GI50 calculation at the termination of the experiment. The day following seeding, compounds were added to assay plates. Briefly, a 1:4 serial dilution was prepared in DMSO at 200× final concentration for a total of 10 concentrations (9 dilutions containing compound and one is DMSO only). Serially diluted compounds were pipetted into medium to prepare a compound-medium mix at 10× final concentration. 10 μl of compound-medium mix was added to MCF7-WT and -Y537S cells at 3 wells/concentration (triplicate for each concentration). On day 3, media/compound was removed and replaced with fresh media/compound as described above. On day 6, CTG was measured and compared to day 0 readings from control plate to assess GI50.

With `C[C@]12CC[C@@H]3c4ccc(O)cc4C[C@@H](CCCCCCCCC[S+]([O-])CCCC(F)(F)C(F)(F)F)[C@H]3[C@@H]1CC[C@@H]2O` (some centres unmarked) [fulvestrant], the “Proliferation effect in mutant ER-bearing MCF7 lines relative to control lines” value was “phenotypic resistance”. As to `CC/C(=C(\c1ccccc1)c1ccc(OCCN(C)C)cc1)c1ccccc1` [tamoxifen], the “Proliferation effect in mutant ER-bearing MCF7 lines relative to control lines” value is “phenotypic resistance”.
